For one data set, the system named is CUTO9 cells. Put plainly: wound-healing assay in CUTO9 cells. The format is cell-based, human. As to conditions: for impact on wound closure / suppression of cell migration (wound closure): 24 hours; for inhibition at 1 µM: Homo sapiens, 24 h, read-out: inhibition of wound closure.
Data set [1] concerns YAP1 phosphorylation at S127. Put plainly: immunoblot analysis of Hippo signaling in CUTO9 cells. The class given is cell-based, human. The settings on record: 2 hours, brigatinib, lorlatinib 3 μM each, MRT67307 1 μM. On the technique in general: Immunoblotting shows a protein as a band on a membrane.
A further data set deals with MARK2/3. Put plainly: immunoblotting of cross-competition pulldowns. The format is binding, human. As to conditions: CUTO9 cells pre-treated with 2.5 μM TKI for 24 hours, immunoblot.
A further data set relates to A549 NSCLC cells. Put plainly: wound-healing assay in A549 cells. The settings on record: for wound closure inhibition: A549 cells (no EML4-ALK, mutant KRAS), 48 hours.
The next data set concerns MARK3. As to conditions: read-out: previously reported in vitro IC50; cited from earlier work.
A further data set concerns MARK2. As to conditions: read-out: reported in vitro IC50; cited from earlier work.
For data set [2] the following is noted: cited from earlier work.

As for `C[C@H]1Oc2cc(cnc2N)-c2c(nn(C)c2C#N)CN(C)C(=O)c2ccc(F)cc21` [lorlatinib], the “impact on wound closure” value in the data set with CUTO9 cells (CUTO9 cells) was “no impact on wound closure”. For the same compound, the “phosphorylation of YAP1 at S127” value in data set [1] is “not observed”.

For the compound `O=C(NCCCNc1nc(Nc2cccc(CN3CCOCC3)c2)ncc1C1CC1)C1CCC1` [MRT67307], the “reduction of cell migration” value with CUTO9 cells (CUTO9 cells, 1 μM) is recorded as “approximately 25%”; in the data set on CUTO9 cells (CUTO9 cells, 3 μM), around 40%. The “phosphorylation of YAP1 at S127” value in data set [1] is given as “induced phosphorylation of YAP1 at S127”.

Regarding `CCc1cc2c(cc1N1CCC(N3CCOCC3)CC1)C(C)(C)c1[nH]c3cc(C#N)ccc3c1C2=O` [alectinib], in the data set on MARK2/3, the “competition for binding of MARK2/3 to i-brigatinib beads” value was “more completely competed”. For the same compound, the wound closure inhibition result with A549 NSCLC cells is listed as “wound closure inhibition observed”. In addition, the “suppression of cell migration (wound closure)” value with CUTO9 cells (CUTO9 cells, 3 μM) was around 45%. In addition, in the data set on CUTO9 cells, the inhibition (in general, the relative decrease from the control value, in per cent) at 1 µM is around 30%.

As for `CNC(=O)c1ccc(Nc2ncc(C(F)(F)F)c(NCc3nccnc3N(C)S(C)(=O)=O)n2)cc1` [defactinib], the effects on migration entry is reported as “minor, but notable effects” in the data set on A549 NSCLC cells (A549 cells) and “minor, but notable effects” with CUTO9 cells (CUTO9 cells).

As for `COc1cc(N2CCC(N3CCN(C)CC3)CC2)ccc1Nc1ncc(Cl)c(Nc2ccccc2P(C)(C)=O)n1` [brigatinib], the “competition for binding of MARK2/3 to i-brigatinib beads” value in the data set with MARK2/3 was “more completely competed”. For the same compound, in the data set with A549 NSCLC cells, the wound closure inhibition entry is listed as “wound closure inhibition observed”. Besides, the IC50 (commonly the concentration at which inhibition is half-maximal) is 127 nM in the data set on MARK3 and 93 nM in the data set on MARK2. Further, in the data set on CUTO9 cells (CUTO9 cells, 3 μM), the “suppression of cell migration (wound closure)” value is “approximately 70%”. Moreover, the inhibition at 1 µM in the data set on CUTO9 cells is around 40%. For the same compound, in the data set on EML4-ALK, the “competition for EML4-ALK” value is listed as “strongest extent of competition”. Also, the “phosphorylation of YAP1 at S127” value in data set [1] is on record as “induced phosphorylation of YAP1 at S127”. For the same compound, the “reported clinically relevant concentration” value in data set [2] (clinical) is 2.9 µM. Besides, the peak concentration (Cmax) (in general, the maximum level reached in the sampled fluid or tissue) in data set [2] (read-out: plasma Cmax, reported, no reference given) was 2500 nM.

Turning to `C[C@@H](Oc1cc(-c2cnn(C3CCNCC3)c2)cnc1N)c1c(Cl)ccc(F)c1Cl` [crizotinib], in the data set on CUTO9 cells (CUTO9 cells), the “impact on wound closure” value is given as “no impact on wound closure”.

(Values after publication PMC10413441 (Chembiochem : a European journal of chemical biology, 2023).)
